Reference: patent US6214859A, “Ethylamine derivatives” (Fujimoto Brothers Co., Ltd., priority 1997, dated 2001)

Legend:
[1] = system: rats reduced learning ability by tetrabenazine; assay: Conditioned avoidance task in the shuttle box (tetrabenazine-treated rats); type: in vivo, rat; details: tetrabenazine 1 mg/kg s.c., significance and direction
Method in brief: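 Male and female rats (200–220 g) were trained in a shuttle box (light/buzzer conditioned stimulus, 100 trials/day for 5 days). Tetrabenazine 1 mg/kg s.c. was given 1 h before testing, with compound at 1, 2, 2.5 or 5 mg/kg s.c. given together with tetrabenazine. CARs, EFs and IRs were counted automatically and analysed by multi-way ANOVA.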

[2] = system: dopamine release, striatum; assay: Release of biogenic amines from brain tissue: dopamine, striatum; type: in vivo, Wistar rats
[3] = system: dopamine release, substantia nigra; assay: Release of biogenic amines from brain tissue: dopamine, substantia nigra; type: in vivo, Wistar rats
[4] = system: dopamine release, tuberculum olfactorium; assay: Release of biogenic amines from brain tissue: dopamine, tuberculum olfactorium; type: in vivo, Wistar rats
[5] = system: noradrenaline release, locus coeruleus; assay: Release of biogenic amines from brain tissue: noradrenaline, locus coeruleus; type: in vivo, Wistar rats
[6] = system: serotonin release, raphe; assay: Release of biogenic amines from brain tissue: serotonin, raphe; type: in vivo, Wistar rats
[7] = system: mice; assay: Toxicity test in mice in the single administration; type: in vivo, mouse; details: 50 mg/kg s.c., two weeks
Experimental: After the compounds of Examples 3, 25, 27 and 28 were administered subcutanously to mice, general symptoms of the mice were observed every day for two weeks.

CCCNC(CCC)Cc1ccc2ccccc2c1.Cl (stereo not drawn) [Compound No. 3, 1-(2-Naphthyl)-2-propylaminopentane Hydrochloride]
Escape Failures (EFs) ([1]; 1 mg/kg s.c.): **** .dwnarw. | Condition Avoidance Reflex (CARs) ([1]; 1 mg/kg s.c., Hydrochloride): **** .Arrow-up bold. | Condition Avoidance Reflex (CARs) ([1]; 2 mg/kg s.c.): **** .Arrow-up bold. | Escape Failures (EFs) ([1]; 2 mg/kg s.c.): **** .dwnarw. | Condition Avoidance Reflex (CARs) ([1]; 2.5 mg/kg s.c.): **** .Arrow-up bold. | Escape Failures (EFs) ([1]; 2.5 mg/kg s.c.): *** .dwnarw. | Intersignal Reactions (IRs) ([1]; 2.5 mg/kg s.c.): * .dwnarw. | Condition Avoidance Reflex (CARs) ([1]; 5 mg/kg s.c.): **** .Arrow-up bold. | Escape Failures (EFs) ([1]; 5 mg/kg s.c.): **** .dwnarw. | Release of dopamine, striatum ([2]; 0.25 mg/kg s.c.): 3.4 ± 0.03 nmol/g tissue, for 20 min | Release of dopamine, striatum ([2]; 1.00 mg/kg s.c., Hydrochloride): 3.9 ± 0.12 nmol/g tissue, for 20 min | Release of dopamine, striatum ([2]; 5.00 mg/kg s.c.): 3.8 ± 0.04 nmol/g tissue, for 20 min | Release of dopamine, substantia nigra ([3]; 0.25 mg/kg s.c.): 4.9 ± 0.07 nmol/g tissue, for 20 min | Release of dopamine, substantia nigra ([3]; 1.00 mg/kg s.c., Hydrochloride): 4.5 ± 0.07 nmol/g tissue, for 20 min | Release of dopamine, substantia nigra ([3]; 5.00 mg/kg s.c.): 9.0 ± 0.50 nmol/g tissue, for 20 min | Release of dopamine, tuberculum olfactorium ([4]; 0.25 mg/kg s.c.): 4.3 ± 0.09 nmol/g tissue, for 20 min | Release of dopamine, tuberculum olfactorium ([4]; 1.00 mg/kg s.c., Hydrochloride): 5.2 ± 0.12 nmol/g tissue, for 20 min | Release of dopamine, tuberculum olfactorium ([4]; 5.00 mg/kg s.c.): 5.1 ± 0.39 nmol/g tissue, for 20 min | Release of noradrenaline, locus coeruleus ([5]; 0.25 mg/kg s.c.): 4.4 ± 0.10 nmol/g tissue, for 20 min | Release of noradrenaline, locus coeruleus ([5]; 1.00 mg/kg s.c., Hydrochloride): 2.6 ± 0.10 nmol/g tissue, for 20 min | Release of noradrenaline, locus coeruleus ([5]; 5.00 mg/kg s.c.): 2.2 ± 0.11 nmol/g tissue, for 20 min | Release of serotonin, raphe ([6]; 0.25 mg/kg s.c.): 0.958 ± 0.03 nmol/g tissue, for 20 min | Release of serotonin, raphe ([6]; 5.00 mg/kg s.c.): 1.215 ± 0.14 nmol/g tissue, for 20 min | survival [7]: all the mice survived
